Experimental data reported in patent US20260191853A1, “METHOD OF TREATING DRUG-INDUCED BRADYARRHYTHMIA” (OSAKA UNIVERSITY, priority 2022, published 2026).
Where a name gives a salt, the structure may show the parent alone.

Legend:
[1] = system: Hartley guinea pigs; assay: Termination effect on fingolimod-induced bradyarrhythmia in isoflurane-anesthetized guinea pig model; format: in vivo; conditions: 30 minutes after initiation of administration of 0.1 mg/kg i.v.; FIG. 5
Excerpt: Hartley guinea pigs (7 to 10 weeks old, male, available from Japan SLC, Inc.) were subjected to anesthetic induction by inhalation of isoflurane (available from Pfizer Japan Inc.), and each animal was held on an operating table having a heater function. The trachea was incised, and a tracheal cannula (KN-375, available from Natsume Seisakusho Co., Ltd.) was inserted. The tracheal cannula was connected to a ventilator (SN-480-7, available from Shinano Seisakusho Co., Ltd.), and artificial respiration was controlled by supplying 100% oxygen at a volume of 10 mL and a ventilation rate of 60 times/minute. Isoflurane (available from Pfizer Japan Inc.) anesthesia (about 1 to 4%, carrier gas: 100% oxygen) was used for maintenance of anesthesia. A catheter (BD intramedic polyethylene tubing PE50, available from Becton, Dickinson and Company) charged with 50 units/mL heparin (available from AY PHARMACEUTICALS CO., LTD.) was inserted into each of the carotid artery and the jugular vein and placed in the blood vessel. Systemic blood pressure was measured with a high-sensitivity DC amplifier (AD-611J, available from NIHON KOHDEN CORPORATION) via the catheter placed in the carotid artery. Electrodes were attached to the body surface, and a body surface electrocardiogram was measured with a high-sensitivity amplifier (AB-611J, available from NIHON KOHDEN CORPORATION). Blood pressure and electrocardiogram data were acquired and analyzed with PowerLab/Labchart system (available from ADInstruments). After stabilization of each parameter, fingolimod hydrochloride (available from Nissan Chemical Corporation) was continuously administered intravenously at 0.1 mg/kg for 10 minutes via the catheter placed in the jugular vein, followed by observation of the presence or absence of atrioventricular block. After confirmation that atrioventricular block continued for 10 minutes from the onset thereof, a solvent or compound (I) dihydrochloride was continuously administered intravenously at 0.1 mg/kg for 30 minutes, and the effect of terminating atrioventricular block was observed during the intravenous administration. The solvent used was saline (available from Otsuka Pharmaceutical Factory, Inc.). Data were recorded and blood was collected 10, 20, and 30 minutes after initiation of administration of compound (I) dihydrochloride and at the time of termination of atrioventricular block. The observation was terminated 30 minutes after initiation of the administration, and the animal was euthanized by exsanguination or intravenous administration of a large amount of saturated potassium chloride solution under isoflurane anesthesia. Data were analyzed for the presence or absence of the termination, the time required for the termination, and the plasma concentration of compound (I) at the time of termination. The plasma was collected by centrifuging the blood and cryopreserved at about −20° C. After thawing of the plasma, plasma drug concentrations were measured using LC/MS/MS after deproteinization with acetonitrile.
In Table 1, the measurements are shown as mean±standard error.

[2] = system: Hartley guinea pigs; assay: Preventive effect on fingolimod-induced bradyarrhythmia in isoflurane-anesthetized guinea pig model; format: in vivo; conditions: fingolimod hydrochloride 0.1 mg/kg i.v. over 10 min, compound (I) non-administration group
Description: A solvent or compound (I) (free form) was administered by oral gavage at a dose of 1, 3, or 10 mg/kg (volume: 5 mL/kg) to Hartley guinea pigs (7 to 10 weeks old, male, available from Japan SLC, Inc.). After completion of the administration, each animal was subjected to anesthetic induction by inhalation of isoflurane (available from Pfizer Japan Inc.), and the animal was held on an operating table having a heater function. The trachea was incised, and a tracheal cannula (KN-375, available from Natsume Seisakusho Co., Ltd.) was inserted. The tracheal cannula was connected to a ventilator (SN-480-7, available from Shinano Seisakusho Co., Ltd.), and artificial respiration was controlled by supplying 100% oxygen at a volume of 10 mL and a ventilation rate of 60 times/minute. The solvent used was 0.5 w/v % methyl cellulose 400 solution (available from FUJIFILM Wako Pure Chemical Corporation). Isoflurane (available from Pfizer Japan Inc.) anesthesia (about 1 to 4%, carrier gas: 100% oxygen) was used for maintenance of anesthesia. A catheter (BD intramedic polyethylene tubing PE50, available from Becton, Dickinson and Company) charged with 50 units/mL heparin (available from AY PHARMACEUTICALS CO., LTD.) was inserted into each of the carotid artery and the jugular vein and placed in the blood vessel. Systemic blood pressure was measured with a high-sensitivity DC amplifier (AD-611J, available from NIHON KOHDEN CORPORATION) via the catheter placed in the carotid artery. Electrodes were attached to the body surface, and a body surface electrocardiogram was measured with a high-sensitivity amplifier (AB-611J, available from NIHON KOHDEN CORPORATION). Blood pressure and electrocardiogram data were acquired and analyzed with PowerLab/Labchart system (available from ADInstruments). Analysis items are systolic blood pressure, diastolic blood pressure, average blood pressure, heart rate, P-wave width, PR interval, QRS width, QT interval, and corrected QT interval. Corrected QT interval was calculated using the fridericia formula (QTc=QT interval/RR interval^1/3). After stabilization of each parameter, fingolimod hydrochloride (synthesized with reference to WO 2000/027798) was continuously administered intravenously at 0.1 mg/kg for 10 minutes via the catheter placed in the jugular vein, followed by observation of the presence or absence of the onset of bradyarrhythmia for 60 minutes. The solvent used was saline (available from Otsuka Pharmaceutical Factory, Inc.). Data were recorded and blood was collected 5, 10, 15, 20, 30, and 60 minutes after initiation of administration of fingolimod hydrochloride. The observation was terminated 60 minutes after initiation of the administration, and the animal was euthanized by exsanguination or intravenous administration of a large amount of pentobarbital or saturated potassium chloride solution under isoflurane anesthesia. Data were analyzed for atrial beating rate over time, ventricular beating rate over time, electrocardiographic parameters, the presence or absence of the onset of atrioventricular block, and plasma concentrations of compound (I), fingolimod, and fingolimod phosphorylated form. The plasma was collected by centrifuging the blood and cryopreserved at about −20° C. After thawing of the plasma, plasma drug concentrations were measured using LC/MS/MS after deproteinization with acetonitrile.
Atrioventricular block was defined as follows.
Second-degree atrioventricular block: atrial activation wave (P wave) is normal, which is followed by or not followed by ventricular activation wave (QRS wave).
Third-degree atrioventricular block: there is no electrical conduction between the atrium and the ventricle, and atrial and ventricular activation waves are generated independently, resulting in atrioventricular dissociation.
In FIG. 1, the measurements are shown as mean±standard error. […]

[3] = system: Hartley guinea pigs; assay: Preventive effect on siponimod-induced bradyarrhythmia in isoflurane-anesthetized guinea pig model; format: in vivo; conditions: siponimod 0.01 mg/kg i.v. over 10 min, compound (I) non-administration group
Description: A solvent or compound (I) (free form) was administered by oral gavage at a dose of 0.3. 1, or 3 mg/kg (volume: 5 mL/kg) to Hartley guinea pigs (7 to 10 weeks old, male, available from Japan SLC, Inc.). After completion of the administration, each animal was subjected to anesthetic induction by inhalation of isoflurane (available from Pfizer Japan Inc.), and the animal was held on an operating table having a heater function. The trachea was incised, and a tracheal cannula (KN-375, available from Natsume Seisakusho Co., Ltd.) was inserted. The tracheal cannula was connected to a ventilator (SN-480-7, available from Shinano Seisakusho Co., Ltd.), and artificial respiration was controlled by supplying 100% oxygen at a volume of 10 mL and a ventilation rate of 60 times/minute. The solvent used was 0.5 w/v % methyl cellulose 400 solution (available from FUJIFILM Wako Pure Chemical Corporation). Isoflurane (available from Pfizer Japan Inc.) anesthesia (about 1 to 4%, carrier gas: 100% oxygen) was used for maintenance of anesthesia. A catheter (BD intramedic polyethylene tubing PE50, available from Becton, Dickinson and Company) charged with 50 units/mL heparin (available from AY PHARMACEUTICALS CO., LTD.) was inserted into each of the carotid artery and the jugular vein and placed in the blood vessel. Systemic blood pressure was measured with a high-sensitivity DC amplifier (AD-611J, available from NIHON KOHDEN CORPORATION) via the catheter placed in the carotid artery. Electrodes were attached to the body surface, and a body surface electrocardiogram was measured with a high-sensitivity amplifier (AB-611J, available from NIHON KOHDEN CORPORATION). Blood pressure and electrocardiogram data were acquired and analyzed with PowerLab/Labchart system (available from ADInstruments). Analysis items are systolic blood pressure, diastolic blood pressure, average blood pressure, heart rate, P-wave width, PR interval, QRS width, QT interval, and corrected QT interval. Corrected QT interval was calculated using the Fridericia formula (QTc=QT interval/RR interval^1/3). After stabilization of each parameter, siponimod (synthesized according to WO 2017/120124) was continuously administered intravenously at 0.01 mg/kg for 10 minutes via the catheter placed in the jugular vein, followed by observation of the presence or absence of the onset of bradyarrhythmia for 60 minutes. The solvent used was a solution prepared by mixing of Polyethylene Glycol 400 (available from KANTO CHEMICAL CO., INC.) and dimethyl sulfoxide (available from FUJIFILM Wako Pure Chemical Corporation) at 9: 1 (volume ratio). Data were recorded and blood was collected 5, 10, 15, 20, 30, and 60 minutes after initiation of administration of siponimod. The observation was terminated 60 minutes after initiation of the administration, and the animal was euthanized by exsanguination or intravenous administration of a large amount of saturated potassium chloride solution under isoflurane anesthesia. Data were analyzed for atrial beating rate over time, ventricular beating rate over time, electrocardiographic parameters, the presence or absence of the onset of atrioventricular block, and plasma concentrations of compound (I) and siponimod. The plasma was collected by centrifuging the blood and cryopreserved at about −20° C. After thawing of the plasma, plasma drug concentrations were measured using LC/MS/MS after deproteinization with acetonitrile.
In FIG. 3, the measurements are shown as mean±standard error. Abbreviations, etc. are as follows. • (I): compound (I) • Atrioventricular block: the presence or absence of atrioventricular block • (x denotes second- or third-degree atrioventricular block) • PR & QRS: atrioventricular conduction time and ventricular activation time • QT & QTcF: ventricular repolarization time and heart rate-corrected ventricular repolarization time • Plasma concentration: the plasma concentration of siponimod or compound (I)

[4] = system: human iPS cell-derived atrial myocytes; assay: Siponimod-induced decrease in beating rate in human iPS cell-derived atrial myocytes (multi-electrode array); format: cell-based; conditions: 0.1 μM siponimod, observed 10 minutes
Description: Cryopreserved human iPS cell-derived atrial myocytes (Human iPSC-derived atrial cardiomyocytes, available from Axol Bioscience) were thawed and seeded at 1,400,000 cells/well on a fibronectin-coated 6-well plate, followed by culturing in an incubator at 37° C. and 5% CO2 for 11 days. During the culture, the entire amount of medium was changed every other day. After the elapse of 11 days, human iPS cell-derived atrial myocytes that started beating were removed from the plate and recovered with TrypLE Select Enzyme (available from ThermoFisher Scientific). The atrial myocytes were seeded at 25,000 cells/2 μL on a fibronectin-coated 6-well MEA Chip (60-6well MEA200/30iR-Ti-tcr, available from Multi Channel Systems) and cultured in an incubator at 37° C. and 5% CO2 for one hour. Thereafter, 400 μL of medium was added and cultured in an incubator at 37° C. and 5% CO2 for 13 days. During the culture, a half amount of the medium was changed every other day. After the elapse of […], the MEA Chip was set in a multi-electrode array system (MEA2100, available from Multi Channel Systems) to thereby obtain extracellular potentials under spontaneous beating. […] Data were analyzed with Labchart System (available from ADInstruments).
In FIG. 6, the measurements are shown as mean±standard error, and (I) denotes compound (I).

## Cc1cc(CO)nc2cc3c(cc12)OC(C)(C)[C@H](O)[C@H]3NCCc1ccccc1 [compound (I) dihydrochloride]
[1]
  fingolimod-induced bradycardia (heart rate, electrocardiogram): completely recovered

## CCCCCCCCc1ccc(CCC(N)(CO)CO)cc1 [fingolimod, reference compound]
[2]
  cases with fingolimod-induced atrioventricular block: four out of four

## CCc1cc(/C(C)=N/OCc2ccc(C3CCCCC3)c(C(F)(F)F)c2)ccc1CN1CC(C(=O)O)C1 [siponimod, reference compound]
[3]
  cases with siponimod-induced atrioventricular block: three out of four
[4]
  beating rate after addition of siponimod (sinus bradycardia): ≤ 50 beats/minute
